Laboratory results reported in publication PMC7215373, “Design, Synthesis, and Anticancer Evaluation of Novel Indole Derivatives of Ursolic Acid as Potential Topoisomerase II Inhibitors” (International Journal of Molecular Sciences, 2020).

How the values were obtained:
DNA topoisomerase I = biological target: T1, DNA topoisomerase I (Bos taurus, UniProt F1MN93); test: Topoisomerase I relaxation assay (supercoiled pBR322); type: biochemical; details: for inhibition at 100 µM: 100 μM compound, read-out: Topo I Inhibition (%) 100 μM; for inhibition at 20 µM: 20 μM compound, read-out: Topo I Inhibition (%) 20 μM
T1 construct: purchased TaKaRa, Kyoto, Japan
T1 sequence (F1MN93 1-767): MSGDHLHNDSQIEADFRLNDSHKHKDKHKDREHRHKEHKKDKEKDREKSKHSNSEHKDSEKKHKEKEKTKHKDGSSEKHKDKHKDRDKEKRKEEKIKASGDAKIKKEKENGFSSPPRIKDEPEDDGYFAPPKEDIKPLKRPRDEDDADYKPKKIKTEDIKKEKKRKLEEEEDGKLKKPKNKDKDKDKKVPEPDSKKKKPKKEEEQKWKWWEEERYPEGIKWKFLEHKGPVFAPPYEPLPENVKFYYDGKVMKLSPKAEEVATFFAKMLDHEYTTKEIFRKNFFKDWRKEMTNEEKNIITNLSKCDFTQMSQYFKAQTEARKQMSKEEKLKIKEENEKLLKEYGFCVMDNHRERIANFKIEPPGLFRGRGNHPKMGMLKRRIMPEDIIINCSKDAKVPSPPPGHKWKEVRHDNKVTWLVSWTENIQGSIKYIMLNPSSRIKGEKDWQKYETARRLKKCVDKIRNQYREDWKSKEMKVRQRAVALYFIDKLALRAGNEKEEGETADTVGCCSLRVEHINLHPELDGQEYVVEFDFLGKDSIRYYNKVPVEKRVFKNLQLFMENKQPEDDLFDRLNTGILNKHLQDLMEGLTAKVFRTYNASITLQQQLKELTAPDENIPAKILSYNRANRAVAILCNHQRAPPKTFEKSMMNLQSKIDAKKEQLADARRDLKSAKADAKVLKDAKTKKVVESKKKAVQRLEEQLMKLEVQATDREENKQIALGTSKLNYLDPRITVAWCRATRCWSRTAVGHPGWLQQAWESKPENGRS
Procedure: The effect of the tested compounds on Topo I and II activities were evaluated by Topo I/II relaxation assays. The reaction products, relaxed DNA could be distinguished from supercoiled DNA by gel electrophoresis and visualized using gel imaging system. The activity of DNA topoisomerase I (TaKaRa, Kyoto, Japan) was determined by measuring the relaxation of supercoiled DNA pBR322 [32]. Camptothecin was used as a positive control. The reaction mixture was prepared according to the manufacture's protocol, and incubated at 37 °C for 30 min. The reactions were terminated by adding dye solution containing 1% SDS, 0.02% bromophenol blue and 50% glycerol. The mixtures were applied to 1% agarose gel and subjected to electrophoresis for 1 h, in 1× TAE buffer (40 mM Tris-acetate, 1 mM EDTA). Gels were stained for 30 min in 60 mL 1× TAE buffer with ethidium bromide (0.5 μg/mL). DNA bands were visualized by transillumination with UV light and then photographed by a Gel Doc XR+ System (BIO-RAD, Hercules, CA, USA).

LO2 cells = test: MTT cytotoxicity assay, normal hepatocyte LO2; type: cell-based; details: Homo sapiens, L02, 48 h exposure, normal hepatocyte cell line
Procedure: (§1) The in vitro cytotoxic activities of synthesized compounds were evaluated against two human hepatocarcinoma cell lines (SMMC-7721 and HepG2) and the human normal hepatocyte cell line (LO2) via MTT assay. All tested compounds were dissolved in DMSO and the stock solutions were diluted by DMEM medium before treatment of the cultured cells. […] Cell lines were obtained from American Tissue Culture Collection (ATCC). Briefly, different tumor cells were grown in DMEM medium supplemented with 10% fetal bovine serum, penicillin (100 U/mL), and streptomycin (50 μg/mL). Cells were harvested at log phase of growth and seeded in 96-well plates (100 μL/well at a density of 2 × 10^5 cells/mL). After 24 h incubation at 37 °C and 5% CO2 to allow cell attachment, cultures were exposed to various concentrations of the isolated compounds for 48 h. Finally, MTT solution (2.5 mg/mL in PBS) was added (40 μL/well). Plates were further incubated for 4 h at 37 °C, and the formazan crystals formed were dissolved by adding 150 μL/well of DMSO. Absorption at 570 nm was measured with an ELISA plate reader. […] Doxorubicin, camptothecin, and etoposide (VP-16) were co-assayed as positive controls.

Human Topoisomerase IIα = biological target: T2, Human Topoisomerase IIα (Homo sapiens, UniProt P11388); test: Topoisomerase II relaxation assay (supercoiled pBR322); type: biochemical; details: for inhibition at 20 µM: 20 μM compound, read-out: Topo II Inhibition (%) 20 μM; for inhibition at 100 µM: 100 μM compound, read-out: Topo II Inhibition (%) 100 μM
T2 construct: purchased USB, Affymetrix, Waltham, MA, USA
T2 sequence (P11388 whole entry): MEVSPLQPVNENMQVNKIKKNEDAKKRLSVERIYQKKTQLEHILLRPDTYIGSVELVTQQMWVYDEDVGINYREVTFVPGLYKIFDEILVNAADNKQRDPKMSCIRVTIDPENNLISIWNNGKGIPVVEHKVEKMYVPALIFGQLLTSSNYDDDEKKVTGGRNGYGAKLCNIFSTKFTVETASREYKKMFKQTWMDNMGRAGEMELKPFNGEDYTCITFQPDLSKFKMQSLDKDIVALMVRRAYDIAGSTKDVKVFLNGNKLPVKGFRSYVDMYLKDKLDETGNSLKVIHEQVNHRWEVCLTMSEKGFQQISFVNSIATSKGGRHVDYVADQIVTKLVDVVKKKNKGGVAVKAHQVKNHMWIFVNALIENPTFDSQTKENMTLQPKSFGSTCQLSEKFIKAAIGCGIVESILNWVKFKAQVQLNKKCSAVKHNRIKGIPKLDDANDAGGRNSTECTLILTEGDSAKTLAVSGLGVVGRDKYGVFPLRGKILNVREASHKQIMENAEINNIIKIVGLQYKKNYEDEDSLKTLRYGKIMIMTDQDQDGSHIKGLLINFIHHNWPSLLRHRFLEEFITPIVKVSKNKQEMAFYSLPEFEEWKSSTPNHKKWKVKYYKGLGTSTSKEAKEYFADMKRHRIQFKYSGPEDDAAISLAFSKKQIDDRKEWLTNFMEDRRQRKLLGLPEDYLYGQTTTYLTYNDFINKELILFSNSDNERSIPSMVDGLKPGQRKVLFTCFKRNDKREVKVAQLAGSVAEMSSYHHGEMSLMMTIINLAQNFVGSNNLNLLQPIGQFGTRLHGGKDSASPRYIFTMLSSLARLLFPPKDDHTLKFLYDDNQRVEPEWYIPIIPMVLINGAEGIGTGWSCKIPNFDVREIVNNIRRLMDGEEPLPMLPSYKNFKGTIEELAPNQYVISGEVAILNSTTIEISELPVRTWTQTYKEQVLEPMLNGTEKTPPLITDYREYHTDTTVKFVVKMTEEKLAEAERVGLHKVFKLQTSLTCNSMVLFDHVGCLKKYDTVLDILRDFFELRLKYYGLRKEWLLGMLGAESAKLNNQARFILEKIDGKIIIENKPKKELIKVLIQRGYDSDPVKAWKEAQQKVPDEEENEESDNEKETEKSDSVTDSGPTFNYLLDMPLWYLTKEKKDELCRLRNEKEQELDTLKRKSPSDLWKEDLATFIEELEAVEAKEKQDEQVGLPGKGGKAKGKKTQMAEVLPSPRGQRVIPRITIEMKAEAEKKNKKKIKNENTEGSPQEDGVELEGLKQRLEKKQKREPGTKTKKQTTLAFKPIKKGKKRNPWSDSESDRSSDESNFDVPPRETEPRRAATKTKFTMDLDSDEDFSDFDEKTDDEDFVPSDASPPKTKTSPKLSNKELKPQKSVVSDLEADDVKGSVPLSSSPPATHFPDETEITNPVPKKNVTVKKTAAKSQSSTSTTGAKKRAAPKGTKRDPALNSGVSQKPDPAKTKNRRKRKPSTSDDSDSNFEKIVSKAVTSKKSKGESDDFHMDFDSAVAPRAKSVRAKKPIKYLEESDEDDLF
Procedure: The effect of the tested compounds on Topo I and II activities were evaluated by Topo I/II relaxation assays. The reaction products, relaxed DNA could be distinguished from supercoiled DNA by gel electrophoresis and visualized using gel imaging system. Human Topoisomerase IIα activity was detected by measuring the relaxation of supercoiled pBR322 plasmid DNA [22]. […] For inhibition studies, the compounds were pre-incubated with human Topo IIα and DNA for 15 min. Compounds were used at the appropriate concentrations by dissolving in 2% (v/v) DMSO. DMSO didn't show detrimental effect on the enzyme activity at concentration up to 2% (v/v). Reaction mixture was incubated at 37 °C for 30 min and stopped by the addition of 7 mM EDTA. Reaction product was mixed with DNA loading dye and electrophoresed on 1% TAE-Agarose. The gel was stained with ethidium bromide (0.5 μg/mL) for 30 min, destained twice in 1× TAE buffer, and then visualized using a BIO-RAD Gel Doc XR+ System. Etoposide (VP-16) was co-assayed as a positive control.

HepG2 cells = test: MTT cytotoxicity assay, HepG2; type: cell-based, human; details: 48 h exposure
Procedure: as §1

SMMC-7721 cells = test: MTT cytotoxicity assay, SMMC-7721; type: cell-based, human; details: 48 h exposure
Procedure: as §1

SMILES | inhibition at 100 µM (DNA topoisomerase I) | melting point | inhibition at 20 µM (Human Topoisomerase IIα) | inhibition at 100 µM (Human Topoisomerase IIα) | inhibition at 20 µM (DNA topoisomerase I) | IC50 (LO2 cells) | IC50 (HepG2 cells; Homo sapiens, HepG2, 48 h) | IC50 (SMMC-7721 cells; Homo sapiens, SMMC-7721, 48 h) | IC50 (HepG2 cells) | IC50 (SMMC-7721 cells)
Cc1ccc2[nH]c3c(c2c1)C[C@@]1(C)C(CC[C@]2(C)C1CC=C1C4[C@@H](C)[C@H](C)CC[C@]4(C(=O)NCCCN4CCOCC4)CC[C@]12C)C3(C)C (some centres unmarked) [5e, N-(3-Morpholinopropyl)-5′-methyl-1′H-ursa-2,12-dieno[3,2-b]indol-28-carboxamide] | 0% | 108 to 110 °C | 31.5% | 70.8% |  | 28.6 ± 0.76 µM | 5.27 ± 0.67 µM | 3.75 ± 0.37 µM |  | 
Cc1ccc2[nH]c3c(c2c1)C[C@@]1(C)C(CC[C@]2(C)C1CC=C1C4[C@@H](C)[C@H](C)CC[C@]4(C(=O)NCCN4CCN(C)CC4)CC[C@]12C)C3(C)C (some centres unmarked) [4f, N-(2-(4-Methylpiperazin-1-yl)ethyl)-5′-methyl-1′H-ursa-2,12-dieno[3,2-b]indol-28-carboxamide] | 0% | 188 to 190 °C | 31.3% | 73.7% |  | 18.3 ± 0.78 µM | ~1 µM | ~1 µM | 1.35 ± 0.17 µM | 1.24 ± 0.16 µM
CCN(CC)CCCNC(=O)[C@]12CC[C@@H](C)[C@H](C)C1C1=CCC3[C@@]4(C)Cc5c([nH]c6ccc(C)cc56)C(C)(C)C4CC[C@@]3(C)[C@]1(C)CC2 (some centres unmarked) [5c, N-(3-(Diethylamino)propyl)-5′-methyl-1′H-ursa-2,12-dieno[3,2-b]indol-28-carboxamide] | 0% | 147 to 149 °C | 38.9% | 75.8% |  | 15.8 ± 1.06 µM | 1.2 ± 0.24 µM | 1.15 ± 0.14 µM |  | 
CCN(CC)CCNC(=O)[C@]12CC[C@@H](C)[C@H](C)C1C1=CCC3[C@@]4(C)Cc5c([nH]c6ccc(C)cc56)C(C)(C)C4CC[C@@]3(C)[C@]1(C)CC2 (some centres unmarked) [4c, N-(2-(Diethylamino)ethyl)-5′-methyl-1′H-ursa-2,12-dieno[3,2-b]indol-28-carboxamide] | 0% |  | 38.3% | 68.7% |  | 26.4 ± 1.32 µM | 2.24 ± 0.32 µM | 2.1 ± 0.21 µM |  | 
COc1cccc2c1C(=O)c1c(O)c3c(c(O)c1C2=O)C[C@@](O)(C(=O)CO)C[C@@H]3O[C@H]1C[C@H](N)[C@H](O)[C@H](C)O1 [DOX, doxorubicin, reference compound] |  |  |  |  |  | 5.32 ± 0.67 µM | 0.81 ± 0.19 µM | 0.68 ± 0.11 µM |  | 
CC[C@@]1(O)C(=O)OCc2c1cc1n(c2=O)Cc2cc3ccccc3nc2-1 [CPT, camptothecin, reference compound] | 75.1% |  |  |  | 38.2% | 8.93 ± 0.52 µM | 1.12 ± 0.26 µM | 0.56 ± 0.18 µM |  | 

Continued, in another order:

inhibition at 100 µM (DNA topoisomerase I) | melting point | inhibition at 20 µM (Human Topoisomerase IIα) | inhibition at 100 µM (Human Topoisomerase IIα) | inhibition at 20 µM (DNA topoisomerase I) | SMILES | IC50 (LO2 cells) | IC50 (HepG2 cells; Homo sapiens, HepG2, 48 h) | IC50 (SMMC-7721 cells; Homo sapiens, SMMC-7721, 48 h) | IC50 (HepG2 cells) | IC50 (SMMC-7721 cells)
16.8% | 132 to 134 °C | 35.2% | 70% | 0% | CCN(CC)CCCCNC(=O)[C@]12CC[C@@H](C)[C@H](C)C1C1=CCC3[C@@]4(C)Cc5c([nH]c6ccc(C)cc56)C(C)(C)C4CC[C@@]3(C)[C@]1(C)CC2 (some centres unmarked) [6c, N-(4-(Diethylamino)butyl)-5′-methyl-1′H-ursa-2,12-dieno[3,2-b]indol-28-carboxamide] | 28.4 ± 2.98 µM | 3.45 ± 0.25 µM | 3.62 ± 0.23 µM |  | 
28.8% | 256 to 258 °C | 27% | 71.1% | 13.7% | Cc1ccc2[nH]c3c(c2c1)C[C@@]1(C)C(CC[C@]2(C)C1CC=C1C4[C@@H](C)[C@H](C)CC[C@]4(C(=O)NCCCCN)CC[C@]12C)C3(C)C (some centres unmarked) [6a, N-(4-Aminobutyl)-5′-methyl-1′H-ursa-2,12-dieno[3,2-b]indol-28-carboxamide] | 15.2 ± 1.15 µM | ~1 µM | ~1 µM | 1.32 ± 0.21 µM | 1.21 ± 0.19 µM
15.1% | 163 to 165 °C | 31.7% | 69% | 0% | Cc1ccc2[nH]c3c(c2c1)C[C@@]1(C)C(CC[C@]2(C)C1CC=C1C4[C@@H](C)[C@H](C)CC[C@]4(C(=O)NCCCCN(C)C)CC[C@]12C)C3(C)C (some centres unmarked) [6b, N-(4-(Dimethylamino)butyl)-5′-methyl-1′H-ursa-2,12-dieno[3,2-b]indol-28-carboxamide] | 18.2 ± 1.64 µM | 2.91 ± 0.18 µM | 2.43 ± 0.21 µM |  | 
2% | 276 to 278 °C | 9.8% | 17.8% |  | Cc1ccc2[nH]c3c(c2c1)C[C@@]1(C)C(CC[C@]2(C)C1CC=C1C4[C@@H](C)[C@H](C)CC[C@]4(C(=O)NCCCNC(=O)[C@]45CC[C@@H](C)[C@H](C)C4C4=CCC6[C@@]7(C)Cc8c([nH]c9ccc(C)cc89)C(C)(C)C7CC[C@@]6(C)[C@]4(C)CC5)CC[C@]12C)C3(C)C (some centres unmarked) [7b, N,N′-(propane-1,3-diyl)-bis(5′-methyl-1′H-ursa-2,12-dieno[3,2-b]indol-28-carboxamide)] | > 50 µM | > 50 µM | > 50 µM |  | 
0% |  | 28.2% | 65.6% |  | Cc1ccc2[nH]c3c(c2c1)C[C@@]1(C)C(CC[C@]2(C)C1CC=C1C4[C@@H](C)[C@H](C)CC[C@]4(C(=O)NCCCCN4CCOCC4)CC[C@]12C)C3(C)C (some centres unmarked) [6e, N-(4-Morpholinobutyl)-5′-methyl-1′H-ursa-2,12-dieno[3,2-b]indol-28-carboxamide] | 35.4 ± 3.13 µM | 7.84 ± 2.31 µM | 4.55 ± 1.56 µM |  | 
0% |  | 39.8% | 81.8% |  | Cc1ccc2[nH]c3c(c2c1)C[C@@]1(C)C(CC[C@]2(C)C1CC=C1C4[C@@H](C)[C@H](C)CC[C@]4(C(=O)NCCCCN4CCN(C)CC4)CC[C@]12C)C3(C)C (some centres unmarked) [6f, N-(4-(4-Methylpiperazin-1-yl)butyl)-5′-methyl-1′H-ursa-2,12-dieno[3,2-b]indol-28-carboxamide] | 13.7 ± 1.28 µM | ~1 µM | ~1 µM | 1.01 ± 0.12 µM | 0.65 ± 0.07 µM
 |  | 47.8% | 88.5% |  | COc1cc([C@@H]2c3cc4c(cc3[C@@H](O[C@@H]3O[C@@H]5CO[C@@H](C)O[C@H]5[C@H](O)[C@H]3O)[C@H]3COC(=O)[C@H]23)OCO4)cc(OC)c1O [VP-16, etoposide, reference compound] | 5.92 ± 0.29 µM | 0.57 ± 0.16 µM | 0.36 ± 0.1 µM |  | 
